Assay results published in patent US20040058898A1, “Pharmaceutical composition for alleviating the violence of a mammal comprising nortestosterone derivatives” (priority 2002, published 2004).

Tests used:
Type in all cases: in vivo
[1] = tested on: male ostriches which violently behaved, cried and did not take feed; assay: Alleviation of the violence and stimulation of the appetite in male ostrich; conditions: for Alleviation of the violence and stimulation of the appetite: results compared with 17β-decanoate-4-estren-3-one / Alleviation of the violence and stimulation of the appetite according to administered amount: results compared with 17β-decanoate-4-estren-3-one: male ostrich; for Alleviation of the violence and stimulation of the appetite: results compared with 17β-decanoate-4-estren-3-one: same procedures as Experimental Example 1 (100 kg, intramuscular, 100 mg), Example 1 result: alleviated violence and stimulated appetite; for Alleviation of the violence and stimulation of the appetite according to administered amount: results compared with 17β-decanoate-4-estren-3-one: same procedures as Experimental Example 2 (100 kg, intramuscular, 10 to 1000 mg), Example 2 result: alleviated violence and stimulated appetite at every amount
Description: (§1) After administration, their behaviors and appetites were observed.

[2] = tested on: male dogs which violently behaved, cried and did not take feed; assay: Alleviation of the violence and stimulation of the appetite in male dog; conditions: male dogs 40 kg, 4, 8, 20, 40, 60, 80, 200 and 400 mg (0.1 to 10 mg per kg), Experimental Example 21, summary of Table 4
Description: as §1

[3] = tested on: male cats which violently behaved, cried and did not take feed; assay: Alleviation of the violence and stimulation of the appetite in male cat; conditions: male cats 1 kg, 0.1, 0.2, 0.5, 1.0, 1.5, 2.0, 5.0 and 10 mg (0.1 to 10 mg per kg), Experimental Example 23, summary of Table 6
Description: as §1

[4] = tested on: male horses which violently behaved, cried and did not take feed; assay: Alleviation of the violence and stimulation of the appetite in male horse; conditions: male horses 200 kg, 20, 40, 100, 200, 300, 400, 1000 and 2000 mg (0.1 to 10 mg per kg), Experimental Example 25, summary of Table 8
Description: as §1

[5] = tested on: male goats which violently behaved, cried and did not take feed; assay: Alleviation of the violence and stimulation of the appetite in male goat; conditions: male goats 40 kg, 4, 8, 20, 40, 60, 80, 200 and 400 mg (0.1 to 10 mg per kg), Experimental Example 27, summary of Table 10
Description: as §1

[6] = male ostriches 100 kg, 10, 20, 50, 100, 150, 200, 500 and 1000 mg (0.1 to 10 mg per kg), Experimental Example 2, summary of Table 2

SMILES: C[C@]12CC[C@H]3[C@@H](CCC4=CC(=O)CC[C@@H]43)[C@@H]1CC[C@@H]2OC(=O)CCC1CCCCC1 [17β-cyclohexylpropinoate-4-estren-3-one]
- Alleviation of the violence and stimulation of the appetite: results compared with 17β-decanoate-4-estren-3-one [1]: the same with the result of the experiment using 17β-decanoate-4-estren-3-one in Experimental Example 1

SMILES: C[C@]12CC[C@H]3[C@@H](CCC4=CC(=O)CC[C@@H]43)[C@@H]1CC[C@@H]2OC(=O)CCc1ccccc1 [17β-phenpropionate-4-estren-3-one]
- Alleviation of the violence and stimulation of the appetite: results compared with 17β-decanoate-4-estren-3-one [1]: the same with the result of the experiment using 17β-decanoate-4-estren-3-one in Experimental Example 1
- Alleviation of the violence and stimulation of the appetite according to administered amount: results compared with 17β-decanoate-4-estren-3-one [1]: the same with the result of the experiment using 17β-decanoate-4-estren-3-one in Experimental Example 2

SMILES: C[C@]12CC[C@H]3[C@@H](CCC4=CC(=O)CC[C@@H]43)[C@@H]1CC[C@@H]2OC(=O)c1ccccc1 [17β-benzoate-4-estren-3-one]
- Alleviation of the violence and stimulation of the appetite: results compared with 17β-decanoate-4-estren-3-one [1]: the same with the result of the experiment using 17β-decanoate-4-estren-3-one in Experimental Example 1
- Alleviation of the violence and stimulation of the appetite according to administered amount: results compared with 17β-decanoate-4-estren-3-one [1]: the same with the result of the experiment using 17β-decanoate-4-estren-3-one in Experimental Example 2

SMILES: CCCCCCCCCCCC(=O)O[C@H]1CC[C@H]2[C@@H]3CCC4=CC(=O)CC[C@@H]4[C@H]3CC[C@]12C [17β-dodecanoate-4-estren-3-one]
- Alleviation of the violence and stimulation of the appetite: results compared with 17β-decanoate-4-estren-3-one [1]: the same with the result of the experiment using 17β-decanoate-4-estren-3-one in Experimental Example 1
- Alleviation of the violence and stimulation of the appetite according to administered amount: results compared with 17β-decanoate-4-estren-3-one [1]: the same with the result of the experiment using 17β-decanoate-4-estren-3-one in Experimental Example 2

SMILES: C[C@]12CC[C@H]3[C@@H](CCC4=CC(=O)CC[C@@H]43)[C@@H]1CC[C@@H]2O [17β-hydroxy-4-estren-3-one]
- Alleviation of the violence and stimulation of the appetite: results compared with 17β-decanoate-4-estren-3-one [1]: the same with the result of the experiment using 17β-decanoate-4-estren-3-one in Experimental Example 1
- Alleviation of the violence and stimulation of the appetite according to administered amount: results compared with 17β-decanoate-4-estren-3-one [1]: the same with the result of the experiment using 17β-decanoate-4-estren-3-one in Experimental Example 2
- appetite after intramuscular injection [1, 6]: appetite stimulated
- feed intake after administration [1, 6]: increased feed intake
- violence of estrus after intramuscular injection [1, 6]: violence of estrus alleviated
- appetite after intramuscular injection [2]: appetite stimulated
- feed intake after administration [2]: increased feed intake
- violence of estrus after intramuscular injection [2]: violence of estrus alleviated
- appetite after intramuscular injection [3]: appetite stimulated
- feed intake after administration [3]: increased feed intake
- violence of estrus after intramuscular injection [3]: violence of estrus alleviated
- appetite after intramuscular injection [4]: appetite stimulated
- feed intake after administration [4]: increased feed intake
- violence of estrus after intramuscular injection [4]: violence of estrus alleviated
- appetite after intramuscular injection [5]: appetite stimulated
- feed intake after administration [5]: increased feed intake
- violence of estrus after intramuscular injection [5]: violence of estrus alleviated

SMILES: C[C@]12CC[C@H]3[C@@H](CCC4=CC(=O)CC[C@@H]43)[C@@H]1CC[C@@H]2OC(=O)C1CCCCC1 [17β-cyclohexanecarboxylate-4-estren-3-one]
- Alleviation of the violence and stimulation of the appetite: results compared with 17β-decanoate-4-estren-3-one [1]: the same with the result of the experiment using 17β-decanoate-4-estren-3-one in Experimental Example 1
- Alleviation of the violence and stimulation of the appetite according to administered amount: results compared with 17β-decanoate-4-estren-3-one [1]: the same with the result of the experiment using 17β-decanoate-4-estren-3-one in Experimental Example 2

SMILES: CCC(=O)O[C@H]1CC[C@H]2[C@@H]3CCC4=CC(=O)CC[C@@H]4[C@H]3CC[C@]12C [17β-propionate-4-estren-3-one]
- Alleviation of the violence and stimulation of the appetite: results compared with 17β-decanoate-4-estren-3-one [1]: the same with the result of the experiment using 17β-decanoate-4-estren-3-one in Experimental Example 1
- Alleviation of the violence and stimulation of the appetite according to administered amount: results compared with 17β-decanoate-4-estren-3-one [1]: the same with the result of the experiment using 17β-decanoate-4-estren-3-one in Experimental Example 2

SMILES: CCCCCCOc1ccc(CCC(=O)O[C@H]2CC[C@H]3[C@@H]4CCC5=CC(=O)CC[C@@H]5[C@H]4CC[C@]23C)cc1 [17β-p-hexyloxyphenylpropionate-4-estren-3-one]
- Alleviation of the violence and stimulation of the appetite: results compared with 17β-decanoate-4-estren-3-one [1]: the same with the result of the experiment using 17β-decanoate-4-estren-3-one in Experimental Example 1
- Alleviation of the violence and stimulation of the appetite according to administered amount: results compared with 17β-decanoate-4-estren-3-one [1]: the same with the result of the experiment using 17β-decanoate-4-estren-3-one in Experimental Example 2
